# Test results: US11986000B2, “Whey protein extracts and their use as sphingomyelin source” (SOCIETE DES PRODUITS NESTLE S.A., priority 2017, dated 2024)
# Test: Determination of total SM in raw materials and finished product by HPLC-ELSD
# Settings: analysed versus theoretical SM in infant formula powders
# Experimental: 1.2. Determination of Total SM in Raw Materials and Finished Product by HPLC-ELSD
# Calibration standard stock solution was prepared by dissolving 140 mg of certified milk lecithin and 10 mg of PG (internal standard) in 100 mL of chloroform/methanol (9/1, v/v) solution. Further dilutions of this solution was performed in chloroform/methanol (9/1, v/v) to yield six standard levels, ranging from 0.012 to 0.249 g L−1 for SM and 0.005 to 0.100 g L^−1 for PG.
# Sample extraction and chromatographic analysis, including chromatography columns and detector settings, were completed according to the procedure as described by Braun et al. (2010) with the following minor modifications. […] EZChrom software package (Agilent Technologies) was used to control the chromatograph and results were analysed using OpenLab software (Agilent Technologies).
# SM was identified within the certified milk lecithin based on peak location in the elution sequence, retention time and characteristic peak shape, as described by Braun et al. (2010). […] A six-point calibration curve was prepared for both SM ([…], R^2=:=::0.996) and PG (0.025-0.507 g L^−1, R^2=:=::0.996) for quantification. […] Quantification of SM was as described by Braun et al. (2010) using the following equation: […]
substance,measurement,value
sphingomyelin [SM],Stability of SM during the manufacturing processes,stable against degradation
